Laboratory results from paper PMC9610999, “Itraconazole-Induced Increases in Gilteritinib Exposure Are Mediated by CYP3A and OATP1B” (Molecules, 2022).
Like-named read-outs stand apart in the source and are kept apart here.

Key:
[1] = set-up: method as in PMID 32546970; details: rats; cited from earlier work
OATP1B1 = target: T1, OATP1B1 (Homo sapiens, UniProt Q9Y6L6); experiment: Washout assay: recovery of OATP1B1 function (EβG uptake); assay type: cell-based; details: within a 1-h period after 15 min treatment with gilteritinib 15 µM; 0.2 μM EβG
T1 construct: expressed in transfected cells; host or cells: HEK293
T1 sequence (Q9Y6L6 1-691): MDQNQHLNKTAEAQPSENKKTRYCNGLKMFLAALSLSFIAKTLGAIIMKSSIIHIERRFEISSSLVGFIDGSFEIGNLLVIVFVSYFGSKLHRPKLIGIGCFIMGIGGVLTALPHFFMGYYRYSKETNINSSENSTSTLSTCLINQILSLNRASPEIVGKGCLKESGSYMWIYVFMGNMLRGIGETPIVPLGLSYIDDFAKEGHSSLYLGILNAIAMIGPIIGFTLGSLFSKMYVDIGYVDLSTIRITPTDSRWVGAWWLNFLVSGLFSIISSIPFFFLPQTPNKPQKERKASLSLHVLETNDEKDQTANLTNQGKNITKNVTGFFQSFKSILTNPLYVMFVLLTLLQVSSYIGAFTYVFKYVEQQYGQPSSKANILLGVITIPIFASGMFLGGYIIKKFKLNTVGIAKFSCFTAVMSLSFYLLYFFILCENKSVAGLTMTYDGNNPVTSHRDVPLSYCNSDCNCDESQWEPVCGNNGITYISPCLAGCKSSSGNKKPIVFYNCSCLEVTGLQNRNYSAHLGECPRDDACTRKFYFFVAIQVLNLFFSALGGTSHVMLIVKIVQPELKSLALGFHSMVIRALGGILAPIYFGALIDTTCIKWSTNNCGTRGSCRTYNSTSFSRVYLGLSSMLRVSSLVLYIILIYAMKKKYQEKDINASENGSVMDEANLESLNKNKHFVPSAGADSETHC
Procedure: OATP1B1 overexpressing cells and vector control cells were plated in 12-well plates 24 h prior to experimentation. Cells were then washed with warm PBS and pre-incubated for 15 min with 0.5 mL DMSO or gilteritinib (15 μM) in DMEM at 37 °C. After pre-incubation, the supernatant was removed, and cells were washed with PBS. Compound-free medium was then added, and the cells were further incubated for periods of 15, 30, and 60 min. Next, the medium was removed, and cells were incubated with 0.5 mL of 0.2 μM EβG for 15 min. After that, the medium was removed and the cells were washed three times with ice-cold PBS, and 1 N NaOH was added to the wells to stop the rection. The next day 1 M HCL was added to each well and substrate concentrations were assessed using liquid scintillation counting. The resulting data were normalized to total protein as determined by a Pierce protein assay.

[2] = Plasma pharmacokinetics of oral gilteritinib in mice, with or without itraconazole pretreatment; assay type: in vivo; details: for Cmax / AUC(0-t): male, mouse, plasma, po, 10 mg/kg, gilteritinib 10 mg/kg p.o., mean (SD); for AUC(0-t): read-out: Gilteritinib AUC0–24h
From the text: Male and female CYP3A(−/−) mice and age- and sex-matched wild-type mice on an FVB/NTac (CYP3A(+/+)) background were bred in-house. Male OATP1B2(−/−) mice and age and sex-matched wild-type mice on a DBA1/lacJ (OATP1B2(+/+)) background were bred in-house. All mice were aged 8–16 weeks and weighed 18–30 g. Littermates of the same sex were housed in groups of five or fewer in a temperature- and light-controlled environment (12-h light/dark cycles) in cages lined with absorbent bedding. Mice were given free access to standard food and water. All breeding and experimental procedures were conducted with the approval of the University Laboratory Animal Resources Animal Care and Use Committee at The Ohio State University under protocol number 201500000101-R2.
For in vivo pharmacokinetic studies, mice were randomly divided into experimental groups of equal size. Gilteritinib powder was dissolved in 0.5% methylcellulose solution in distilled sterile water at a concentration of 2 mg/mL and was administered via oral gavage at a body weight normalized dose of 10 mg/kg. The dose of gilteritinib was chosen based on previous preclinical characterization of gilteritinib pharmacokinetics. Itraconazole powder was dissolved in a solvent comprised of 5% DMSO, 70% PEG300, and 25% distilled sterile water and administered orally at a dose of 100 mg/kg. The dose of itraconazole was based on previous work studying preclinical DDI with itraconazole. For combination treatments, itraconazole was always given 30 min prior to gilteritinib.
Pharmacokinetic studies were performed in accordance with a repeat sampling strategy described previously. After a single dose of gilteritinib, 20–40 μL of whole blood samples were collected from each mouse at time points ranging from 0.5–24 h after dosing. Samples procured during the first three time points were collected from the submaxillary vein using a sterile, disposable 4 mm or 5 mm Goldenrod animal blood lancet and collected into a glass micro-hematocrit heparinized capillary tube. For samples obtained at the fourth and fifth time points, the mice were sedated using 2% isoflurane and whole blood was obtained via the retro-orbital venous plexus. At the final time point, mice were euthanized via carbon dioxide inhalation, whole blood was collected by cardiac puncture with a needle and 1-mL syringe and transferred to a 1.5-mL heparinized tube. All samples were centrifuged at 13,000× g for 5 min and the plasma supernatant was transferred to a 0.5-mL tube, snap-frozen on dry ice, and stored at −80 °C until the day of analysis.
Pharmacokinetic parameters were estimated using non-compartmental analyses using Phoenix WinNonlin version 8.1 (Certara, Princeton, NJ, USA). Estimated measures of exposure included the peak plasma concentration (Cmax) and the area under the plasma concentration–time curve (AUC).

[3] = CYP3A(−/−) on FVB/NTac background, CYP3A(−/−) male mice, itraconazole 100 mg/kg 30 min before
[4] = CYP3A(−/−) on FVB/NTac background, CYP3A(−/−) male mice, no co-treatment
[5] = DBA/1J (wild-type), Wild-type DBA/1J male mice, no co-treatment
[6] = FVB (wild-type), Wild-type FVB male mice, itraconazole 100 mg/kg 30 min before
[7] = FVB (wild-type), Wild-type FVB male mice, no co-treatment
[8] = OATP1B2(−/−) on DBA1/lacJ background, OATP1B2(−/−) male mice, itraconazole 100 mg/kg 30 min before
[9] = OATP1B2(−/−) on DBA1/lacJ background, OATP1B2(−/−) male mice, no co-treatment, experiment compared with itraconazole co-treatment
[10] = OATP1B2(−/−) on DBA1/lacJ background, OATP1B2(−/−) male mice, no co-treatment, experiment compared with wild-type DBA/1J

## CCc1nc(C(N)=O)c(Nc2ccc(N3CCC(N4CCN(C)CC4)CC3)c(OC)c2)nc1NC1CCOCC1 [Gilteritinib]
[1]
  Increase in gilteritinib exposure by itraconazole: 1.4 fold
OATP1B1
  OATP1B1 transport recovered after washout: 75%
[2]; CYP3A(−/−) mice, no co-treatment, vs. WT
  Gilteritinib AUC Fold Increase: 1.3 (vs. WT) fold
[2]; CYP3A(−/−) mice, no co-treatment, vs. WT, listed as gilteritinib
  Gilteritinib AUC Fold Increase: 1.3 fold
[2]; CYP3A(−/−) mice, with itraconazole 100 mg/kg vs. Vehicle
  Gilteritinib AUC Fold Increase: 0.97 (vs. Vehicle) fold
[2]; OATP1B2(−/−) mice, no co-treatment, vs. WT
  Gilteritinib AUC Fold Increase: 1.4 (vs. WT) fold
[2]; OATP1B2(−/−) mice, no co-treatment, vs. WT, listed as gilteritinib
  Gilteritinib AUC Fold Increase: 1.4 fold
[2]; OATP1B2(−/−) mice, with itraconazole 100 mg/kg vs. Vehicle
  Gilteritinib AUC Fold Increase: 0.84 (vs. Vehicle) fold
[2]; Wild-type FVB mice, with itraconazole 100 mg/kg vs. Vehicle
  Gilteritinib AUC Fold Increase: 2.5 (vs. Vehicle) fold
[2]; Wild-type FVB mice, with itraconazole 100 mg/kg vs. Vehicle, listed as gilteritinib
  Gilteritinib AUC Fold Increase: about 2.5 fold
[2]; [3]
  Cmax: 430 ng/mL
  AUC(0-t): 5840 ng·h/mL
[2]; [4]
  Cmax: 380 ng/mL
  AUC(0-t): 5990 ng·h/mL
[2]; [5]
  Cmax: 260 ng/mL
  AUC(0-t): 4550 ng·h/mL
[2]; [6]
  Cmax: 960 ng/mL
  AUC(0-t): 11500 ng·h/mL
[2]; [7]
  Cmax: 310 ng/mL
  AUC(0-t): 4650 ng·h/mL
[2]; [8]
  Cmax: 1350 ng/mL
  AUC(0-t): 15000 ng·h/mL
[2]; [9]
  Cmax: 1430 ng/mL
  AUC(0-t): 17800 ng·h/mL
[2]; [10]
  Cmax: 390 ng/mL
  AUC(0-t): 6160 ng·h/mL
